{"source": "patent US11612651B2", "about": "“Steroid acid-based immunogen enhancers” (priority 2021, dated 2023)", "key": {"GII.3 human norovirus": {"test_system": "GII.3 human norovirus", "conditions": "host intestinal cells; free bile acids; cited from earlier work"}, "B3Z cells": {"test_system": "B3Z cells", "experiment": "Antigen-presentation assay using the B3Z reporter system, BMDCs as antigen presenting cells", "assay_type": "cell-based, mouse", "conditions": "BMDCs; molar ratio (bile acid/peptide/conjugate):antigen 4:1; mixed with OVA; FIG. 2", "excerpt": "For this experiment, BMDCs were used as the antigen presenting cells (n=6) and the molar ratio (bile acid/peptide/conjugate): antigen was 4:1. Controls tested included no antigen (“PBS”), antigen alone (“OVA alone”), unconjugated NLS peptide (“SV40NLS”), unconjugated cholic acid mixed with OVA (“CA”), and the positive control peptide SIINFEKL (SEQ ID NO: 9) mixed with OVA (“SIINFEKL”). The dashed line represents the signal obtained with OVA alone. Bile acids: cholic acid (CA); glycodeoxycholic acid (GDCA); glycochenodeoxycholic acid (GCDCA); ursodeoxycholic acid (UDCA); and lithocholic acid (LCA).\nThe dashed line represents the signal obtained with OVA alone. The readout was taken after 24 h of incubation and error bars represent SD (n=6). For this experiment, BMDCs were used as the antigen presenting cells.\nThe dashed line represents the signal obtained with OVA alone. Readout was taken after 24 h of incubation from a single experiment. The molar ratio of CA-peptide conjugate: OVA was 22:1. For this experiment, BMDCs were used as the antigen presenting cells.\nFor this experiment, BMDCs were used as the antigen presenting cells. The dashed line represents the signal obtained with OVA alone. Readout was taken after 24 h of incubation from a single experiment. The molar ratio of CA-peptide conjugate: OVA was as follows: CA-GWG-SV40NLS (12:1); CA-hnRNP M NLS (12:1); CA-NLS2-RPS17 NLS (22:1); CA-HuR NLS (22:1); CA-cMyc NLS (2:1); CA-NLS3-RPS17 NLS (22:1); CA-NLS2-RG-RPS17 NLS (2:1); CA-PQBP1 NLS (8:1); CA-hnRNPA1 M9 NLS (22:1); and CA-SV40 NLS (2:1).\nVarious bile acid-NLS conjugates were screened using the B3Z reporter system. The B3Z cell line is a T-cell hybridoma specific for the H2-K^b-SIINFEKL complex. Once activated via its TCR, the LacZ reporter gene (under the NFAT promoter control) is expressed. Briefly, 1.5×10^5 BMDCs or 2.5×10^5 MSCs were co-cultured with 5×10^4 B3Z cells treated with the mixing conditions of ovalbumin (OVA) and bile acid-NLS conjugates for overnight at 37° C. with 5% CO2. The following day, all cells were washed twice with PBS (pH 7.4), and the cell pellets were lysed by adding 100 μL of a lysis buffer containing 0.15 mM chlorophenol red-beta-D-galactopyranoside (CPRG) substrate (Calbiochem, La Jolla, Calif.), 0.125% NP40 (EMD Sciences, La Jolla, Calif.), 9 mM MgCl2 (Aldrich, USA) and 100 mM 2-mercaptoethanol in PBS. After a 5- or 24-h incubation at 37° C., absorbance was taken at 570 nm with 636 nm as the reference wavelength. For these experiments, OVA was re-suspended in PBS (pH 7.3) at 5-10 mg/mL. The different bile acid-NLS conjugates were re-suspended in H2O at 10 mg/mL. Bile acid-NLS conjugate: antigen mixtures were prepared at different molar ratios according to Table 2.\nVariants of CA-SV40NLS were synthesized in order to explore structure-activity relationships relating to the antigen cross-presentation enhancing activity observed for this conjugate. More particularly, conjugates having different bile acids conjugated to the SV40NLS peptide (SEQ ID NO: 1) were synthesized and their effect on antigen presentation was evaluated by using the B3Z reporter system with the OVA antigen as described in Example 1. […] In FIG. 2, no increase in antigen cross-presentation over the antigen alone (“OVA”) was observed when OVA was mixed with either unconjugated cholic acid (“CA”) or SV40NLS peptide (“SV40NLS”), although lower sensitivity of the B3Z reporter system as compared to the OT-I CD8 T cell-based assay used in FIG. 1 may have been a factor.\nFurther variants of CA-SV40NLS were synthesized in which the SV40NLS peptide was replaced with peptides comprising other NLS's (Table 3) and the antigen presentation activities of the CA-NLS peptide conjugates were evaluated using the B3Z reporter system as described in Example 1. The following conjugate:antigen molar ratios were tested for each conjugate: 2:1, 4:1, 8:1, 12:1 and 22:1. […]"}, "[1]": {"test_system": "OVA-responding OT-I (CD8) cells", "experiment": "Antigen cross-presentation assay: pulsed BMDCs co-cultured with OT-I CD8 T-cells, IFN-gamma by ELISA", "assay_type": "cell-based, mouse", "conditions": "BMDCs pulsed 3 h with highest enhancer:OVA ratios tested; co-culture with OT-I CD8 T-cells; FIG. 1", "experimental": "Mouse BMDCs were pulsed for 3 hours with antigen (OVA) alone, cholic acid (CA) alone, a cholic acid-NLS peptide conjugate (CA-SV40NLS) alone, different ratios of CA to antigen (CA:OVA=22:1, 12:1, 8:1, 4:1, and 2:1), or different ratios of an cholic acid-NLS peptide conjugate to antigen (CA-SV40NLS:OVA=22:1, 12:1, 8:1, 4:1, and 2:1). The pulsed BMDCs were then co-cultured with OT-I mouse-derived CD8 T-cells and IFN-gamma levels were quantified as a measure of cross presentation activity.\nMouse bone marrow derived dendritic cells (BMDCs) were generated by flushing the whole marrow from mouse femurs using RPMI™ 1640 supplemented with 10% fetal bovine serum (FBS), 50 U/mL Penicillin-Streptomycin, 2 mM L-glutamine, 10 mM HEPES, 1% MEM Non-essential Amino Acids, 1 mM Sodium Pyruvate, 0.5 mM beta-mercaptoethanol. […] Mature DCs were assessed by flow cytometry for their surface expression of CD3, CD19, NK1.1, CD11c, CD80, CD86, and I-Ab.\nTo evaluate antigen cross-presentation, cells were seeded at 25×10^3 cells per well in 24-well plates (Corning; Massachusetts, United States), then pulsed with antigens or antigen-containing mixtures at different concentrations for 3 h. […] After 72 hours, supernatants were collected and used to quantify cytokine production by commercial enzyme-linked immunosorbent assays (ELISAs). […]"}}}
{"smiles": "C[C@H](CCC(=O)O)[C@H]1CC[C@H]2[C@@H]3[C@H](O)C[C@@H]4C[C@H](O)CC[C@]4(C)[C@H]3C[C@H](O)[C@]12C", "note": "[CA, cholic acid]", "values": [{"measurement": "effect on GII.3 human norovirus infection and replication", "setting": "GII.3 human norovirus", "value": "increase GII.3 human norovirus infection and replication"}, {"measurement": "antigen cross-presentation (B3Z response) compared with OVA alone", "setting": "B3Z cells", "value": "no increase"}, {"measurement": "increase in the amount of IFN-gamma produced, as compared to BMDCs pre-pulsed with the OVA antigen alone", "setting": "[1]", "value": "up to 3 fold"}]}
